Test system: IL-1α
Experiment: Serum cytokine analysis, multiplex ELISA
Type: in vivo, mouse
Details: serum collected weekly; compared to Injury and mGRPs groups
Procedure: Samples were collected every week, starting from day of graft transplantation (day 0), 100 μl of blood from mouse tail. Blood was stored 1 h in room temperature, and overnight in +4° C. Serum was gently aspirated, and centrifuged 10 min with 2000 RPM to separate blood morphotic bodies. Purified serum was stored in −80° C. until further analysis. Multiplex ELISA 23-cytokine kit (M60009RDPD) was obtained from Bio-Rad (Bio-Plex Pro Mouse Cytokine 23-plex Assay #M60009RDPD, Hercules, Bio-Rad, CA, USA, RRID: AB_2857368) and performed according to instructions. 50 μl of diluted in sample diluent, 1:4 serum samples and diluted at range 1:10-1:20. Measurement standards were used, diluted 9 times according to the protocol and added at template plate. Vortexed beads were added to the assay 96-well plate. Plate was again washed 3 times with wash buffer, then from template plate, 50 μl of samples, standards and blank were transferred to measurement plate with multichannel pipette. Plate was sealed with tape and incubated 30 min. After this time, plate was washed 3 times. 25 μl of detection antibody was added to the wells with multichannel pipette. Plate was sealed and incubated for 30 min. and next washed 3 times using wash buffer. […] Beads were resuspended with 125 μl of assay buffer and analysis was performed with Bio Plex 200 reader.
All quantifications were performed including the manual cell counts in a blinded manner. The NeuN and Ibal were counted as positive cells in the ROI (see above) as previously reported. The number of cells was determined by unbiased counting of positive cells. […] Differences between groups were analyzed using a repeated measure ANOVA model with a fixed effect for the group, of the time and a random intercept for the mouse. In a second, more explorative, approach for each group the time when the physical activity was first measured below a certain threshold was determined. […] The clinically relevant threshold was determined according to previous observations and defined as value 0.9 for the Wire Test. […] The statistical significance at p<0.05 was then determined.

C=CC[C@@H]1/C=C(\C)C[C@H](C)C[C@H](OC)[C@H]2O[C@@](O)(C(=O)C(=O)N3CCCC[C@H]3C(=O)O[C@H](/C(C)=C/[C@@H]3CC[C@@H](O)[C@H](OC)C3)[C@H](C)[C@@H](O)CC1=O)[C@H](C)C[C@@H]2OC [Tac, Tacrolimus, reference compound]
peripheral IL-1α cytokine peak: decreased IL-1α peak significantly
